{
  "source": "patent US12485105B2",
  "about": "“Composition for suppressing obesity” (DAICEL CORPORATION, priority 2019, dated 2025)",
  "key": {"[1]": {"tested_on": "3T3-L1 cells", "details": "reported, Non-Patent Document 2; cited from earlier work"}, "[2]": {"tested_on": "rats", "details": "administration to rats; reported, Non-Patent Document 3; cited from earlier work"}, "[3]": {"tested_on": "SREBP", "details": "in rats; reported, Non-Patent Document 4; cited from earlier work"}, "[4]": {"tested_on": "C57BL/6 male mice", "test": "Body weight and adipose tissue fat weights of mice fed normal or high-fat diet with 8PN for 8 weeks", "type": "in vivo", "details": "for increase in the fat weight of the subcutaneous adipose tissue: vs Group 4, FIG. 2; for increase in the fat weight of the brown adipose tissue: vs Group 4, FIG. 3; for increase in the fat weight of the mesenteric adipose tissue: vs Group 4, FIG. 4; for increase in the fat weight of the perirenal adipose tissue: vs Group 4, FIG. 5; for increase in the fat weight of the epididymal adipose tissue: vs Group 4, FIG. 6; for increase in the fat weight of the white adipose tissue: vs Group 4, total of adipose tissue other than brown, FIG. 7", "source_text": "(§1) C57BL/6 male mice (available from Japan SLC, Inc.) were arranged into the following six groups of six mice each. Note that, 8-prenylnaringenin (may be described herein as 8PN) was used as the prenylflavonoid of the present embodiment. • (Group 1) Group that ingested a normal diet without the addition of 8PN • (Group 2) Group that ingested a normal diet with the addition of 8PN (final concentration: 0.0005%) • (Group 3) Group that ingested a normal diet with the addition of 8PN (final concentration: 0.005%) • (Group 4) Group that ingested a high-fat diet without the addition of 8PN • (Group 5) Group that ingested a high-fat diet with the addition of 8PN (final concentration: 0.0005%) • (Group 6) Group that ingested a high-fat diet with the addition of 8PN addition (final concentration: 0.005%)\n(§2) AIN-93M feed was used as the normal diet (control diet), and AIN-93M feed containing 30% lard was used as the high-fat diet. These feeds were mixed with 8PN for Group 2, Group 3, Group 5 and Group 6.\n(§3) The mice were each raised in individual cages, were allowed to freely consume each feed and deionized water, and were raised for 8 weeks. The rearing environment included a temperature of 22±2° C., humidity without artificial control, and light-dark cycles alternated every 12 hours. After 8 weeks, the mice were slaughtered by drawing blood from the heart under co-anesthesia of sevoflurane and somnopentyl, after which each mouse was weighed to measure the body weight. Next, subcutaneous adipose tissue, brown adipose tissue, mesenteric adipose tissue, perirenal adipose tissue, and epididymal adipose tissue were extracted from each mouse, and the fat weight in each tissue was measured by weighing with a scale. The total weight of adipose tissue other than the brown adipose tissue was calculated as the weight of white adipose tissue from the extracted fat."}, "[5]": {"tested_on": "C57BL/6 male mice", "test": "Plasma glucose, cholesterol and insulin of mice fed high-fat diet with 8PN", "type": "in vivo", "details": "8 weeks; for increase in the blood concentration of glucose: vs Group 4, FIG. 8; for increase in the blood concentration of cholesterol: vs Group 4, FIG. 9; for increase in the blood concentration of insulin: vs Group 4, FIG. 10", "source_text": "as §1, §2, §3\nExample 2 was carried out in the same manner as Example 1 up to the slaughtering of the mice. Blood was drawn from each mouse at the time of slaughtering and was centrifuged at 5000 rpm for 10 minutes, and plasma was obtained from the supernatant. The amount of glucose was measured using the Glucose CII Test Wako Kit (available from Fujifilm Wako Pure Chemical Corporation), and the amount of insulin was measured using the LBIS (trade name) Mouse Insulin ELISA Kit (RTU) (available from Fujifilm Wako Pure Chemical Corporation). In addition, the amount of cholesterol was measured using the LabAssay Cholesterol Kit (available from Fujifilm Wako Pure Chemical Corporation)."}, "[6]": {"tested_on": "C57BL/6 male mice", "test": "Thigh muscle weight of mice fed normal or high-fat diet with 8PN", "type": "in vivo", "details": "8 weeks, p<0.05, FIG. 11", "source_text": "as §1, §2, §3\nExample 3 was implemented in the same manner as Example 1 up to the slaughtering of the mice. At the time of the slaughtering, the thigh muscles were removed from each mouse, and the weight of each muscle was measured by weighing with a scale."}, "[7]": {"biological_target": "T1, pig-derived pancreatic lipase II (Sus scrofa, UniProt P00591)", "T1 construct": "purchased Sigma", "T1 sequence (P00591 1-450)": "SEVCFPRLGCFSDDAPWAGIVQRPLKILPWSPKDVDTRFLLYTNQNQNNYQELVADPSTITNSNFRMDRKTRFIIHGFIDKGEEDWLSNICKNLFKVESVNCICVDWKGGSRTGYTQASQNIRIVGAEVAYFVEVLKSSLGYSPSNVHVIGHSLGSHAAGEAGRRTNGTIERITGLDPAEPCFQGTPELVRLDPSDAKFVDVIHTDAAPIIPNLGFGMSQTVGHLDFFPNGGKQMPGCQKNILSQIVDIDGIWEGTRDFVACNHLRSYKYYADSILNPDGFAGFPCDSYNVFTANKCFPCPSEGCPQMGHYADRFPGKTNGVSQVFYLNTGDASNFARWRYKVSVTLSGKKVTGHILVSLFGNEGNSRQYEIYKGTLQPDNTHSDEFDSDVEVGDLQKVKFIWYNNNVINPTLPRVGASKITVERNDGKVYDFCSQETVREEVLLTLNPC", "test": "Pancreatic lipase activity inhibition (triolein substrate, free fatty acids by NEFA C-Test)", "type": "biochemical", "details": "8PN final concentration 1.0, 2.0, 4.0, 7.0 or 10.0 mg/mL; 37° C., 30 minutes; FIG. 12", "description": "An enzyme solution was prepared by dissolving pig-derived pancreatic lipase II (available from Sigma) in a 100 mM Tris-HCl buffer solution (pH 7.0) to make a final concentration of 250 μg/mL. In addition, 80 mg of triolein, 10 mg of lecithin, and 5 mg of sodium cholate were dissolved in 9 mL of a 100 mM tris-HCl buffer solution (pH 7.0), and the mixture was subjected to ultrasonic treatment for 10 minutes to prepare a substrate solution that was a homogeneous suspension. […] The reaction was stopped by a heating treatment at 100° C. for 2 minutes, and the amount of free fatty acids was measured through absorbance at a wavelength of 550 nm using the NEFA C-Test Wako Kit (available from Fujifilm Wako Pure Chemical Corporation). […]\nAlso note that a control was prepared in the same manner as described above with the exception that DMSO was used instead of 8PN. […] The lipase activity inhibition rate was calculated by the following calculation equation (1). Lipase activity inhibition rate (%)={1−((B−A)/(C−A))}×100 (1) • A: Absorbance of blank • B: Absorbance of test reaction solution • C: Absorbance of control"}, "[8]": {"details": "reported, Non-Patent Document 1; cited from earlier work"}, "[9]": {"details": "reported, Patent Document 1; cited from earlier work"}, "[10]": {"details": "reported, Patent Document 2; cited from earlier work"}, "[11]": {"details": "Group 5: high-fat diet with 8PN 0.0005%"}, "[12]": {"details": "Group 6: high-fat diet with 8PN 0.005%"}},
  "data": [
    {"smiles": "COc1cc(O)c(CC=C(C)C)c(O)c1C(=O)/C=C/c1ccc(O)cc1", "note": "[xanthohumol]", "values": [
      {"measurement": "differentiation of 3T3-L1 cells", "setting": "[1]", "value": "has an effect of suppressing"},
      {"measurement": "lipid synthesis", "setting": "[1]", "value": "an effect of suppressing"},
      {"measurement": "weight gain", "setting": "[2]", "value": "suppressed"},
      {"measurement": "SREBP activation and lipid synthesis", "setting": "[3]", "value": "suppresses"}
    ]},
    {"smiles": "CC(C)=CCc1c(O)cc(O)c2c1O[C@H](c1ccc(O)cc1)CC2=O", "note": "[8PN, 8-prenylnaringenin]", "values": [
      {"measurement": "increase in body weight", "setting": "[4]; Group 5: high-fat diet with 8PN 0.0005%, vs Group 4 (high-fat diet without 8PN), FIG. 1", "value": "suppressed"},
      {"measurement": "increase in the fat weight of the subcutaneous adipose tissue", "setting": "[4]; [11]", "value": "suppressed"},
      {"measurement": "increase in the fat weight of the brown adipose tissue", "setting": "[4]; [11]", "value": "suppressed"},
      {"measurement": "increase in the fat weight of the mesenteric adipose tissue", "setting": "[4]; [11]", "value": "suppressed"},
      {"measurement": "increase in the fat weight of the perirenal adipose tissue", "setting": "[4]; [11]", "value": "suppressed"},
      {"measurement": "increase in the fat weight of the epididymal adipose tissue", "setting": "[4]; [11]", "value": "suppressed"},
      {"measurement": "increase in the fat weight of the white adipose tissue", "setting": "[4]; [11]", "value": "suppressed"},
      {"measurement": "increase in body weight", "setting": "[4]; Group 6: high-fat diet with 8PN 0.005%, vs Group 4, FIG. 1", "value": "suppressed"},
      {"measurement": "increase in the fat weight of the subcutaneous adipose tissue", "setting": "[4]; [12]", "value": "suppressed"},
      {"measurement": "increase in the fat weight of the brown adipose tissue", "setting": "[4]; [12]", "value": "suppressed"},
      {"measurement": "increase in the fat weight of the mesenteric adipose tissue", "setting": "[4]; [12]", "value": "suppressed"},
      {"measurement": "increase in the fat weight of the perirenal adipose tissue", "setting": "[4]; [12]", "value": "suppressed"},
      {"measurement": "increase in the fat weight of the epididymal adipose tissue", "setting": "[4]; [12]", "value": "suppressed"},
      {"measurement": "increase in the fat weight of the white adipose tissue", "setting": "[4]; [12]", "value": "suppressed"},
      {"measurement": "increase in the blood concentration of glucose", "setting": "[5]; [11]", "value": "suppressed"},
      {"measurement": "increase in the blood concentration of cholesterol", "setting": "[5]; [11]", "value": "suppressed"},
      {"measurement": "increase in the blood concentration of insulin", "setting": "[5]; [11]", "value": "suppressed"},
      {"measurement": "increase in the blood concentration of glucose", "setting": "[5]; [12]", "value": "suppressed"},
      {"measurement": "increase in the blood concentration of cholesterol", "setting": "[5]; [12]", "value": "suppressed"},
      {"measurement": "increase in the blood concentration of insulin", "setting": "[5]; [12]", "value": "suppressed"},
      {"measurement": "weight of the thigh muscle", "setting": "[6]; Group 2: normal diet with 8PN 0.0005%, vs Group 1 (normal diet without 8PN)", "value": "increased"},
      {"measurement": "weight of the thigh muscle", "setting": "[6]; Group 3: normal diet with 8PN 0.005%, vs Group 1", "value": "increased"},
      {"measurement": "weight of the thigh muscle", "setting": "[6]; Group 5: high-fat diet with 8PN 0.0005%, vs Group 4", "value": "increased"},
      {"measurement": "weight of the thigh muscle", "setting": "[6]; Group 6: high-fat diet with 8PN 0.005%, vs Group 4", "value": "increased"},
      {"measurement": "lipase activity inhibition rate", "setting": "[7]", "value": "increased in a manner dependent on the concentration of 8PN"},
      {"measurement": "estrogen activity", "setting": "[8]", "value": "exhibits"},
      {"measurement": "angiogenesis inhibition", "setting": "[9]", "value": "exhibits"},
      {"measurement": "suppression of muscle disuse atrophy", "setting": "[10]", "value": "exhibits"}
    ]}
  ]
}
